{
  "source": "patent US9115213B2",
  "about": "“Phenotypic reversion of pancreatic carcinoma cells” (The Research Foundation of State University of New York, priority 2004, dated 2015)",
  "key": {"BMRPA1 cells": {"system": "BMRPA1 cells", "details": "cited from earlier work"}, "TUC-3 cells [1]": {"system": "TUC-3 cells", "details": "cited from earlier work"}, "[2]": {"system": "insulin-activated wild-type ras-p21", "details": "cited from earlier work"}, "[3]": {"molecular_target": "T1, oncogenic ras-p21 (Val 12-p21) (Homo sapiens, UniProt P01112, G12V)", "T1 construct": "host or cells: microinjected into Xenopus laevis oocytes", "details": "cited from earlier work"}, "[4]": {"system": "BMRPA1 pancreatic acinar cells", "test": "Peptide incubation with normal BMRPA1 cells", "source_text": "As described in several prior publications (16, 17, 20), we have developed two cell lines, one a normal contact-inhibited line of rat pancreatic acinar cells, called BMRPA1.430 (BMRPA1) cells and the other a pancreatic acinar carcinoma obtained by transfection of BMRPA1 cells with a plasmid containing an activated human K-ras oncogene [single base mutation at codon 12, valine substitution for the wild type glycine in the ras protein (K-ras^val12); a kind gift of Dr. M. Perucho (CIBR, La Jolla, Calif.)] and a neomycin resistance gene. […] In addition, they phenotypically maintain differentiated cell functions such as continued enzyme production and activation of zymogen secretion by secretagogue.\nApproximately 300,000 cells (either BMRPA1 or TUC-3) were plated in each of six wells and were allowed to adhere overnight. In one set of experiments, the initial media consisted of DMEM with 10% fetal bovine serum that contained no peptide. In another set of experiments, the initial media contained peptide. In the first set, media containing peptide was added after 24 hours; in both sets, after the first 24 hours, the media was changed every 24 hours and always contained peptide at a particular concentration. Cells were observed daily for three weeks for changes in morphology and growth characteristics. Peptides were present at concentrations of […]."}, "TUC-3 cells [5]": {"system": "TUC-3 cells", "test": "Explantation of peptide-treated, morphologically revertant TUC-3 cells into nude mice", "format": "in vivo, Nu/Nu mice", "details": "for Tumor Nodule Size: 5 × 10^6 TUC-3 cells treated 2 weeks with peptide, posterior cervical fat pad, 5 nude mice, mean ± SD", "experimental": "To evaluate cells that appeared to be morphologically revertant to the normal phenotype, approximately 5×10^6 morphologically revertant TUC-3 cells treated for two weeks with 100 μg/ml of PNC-2 were injected subcutaneously into the posterior cervical fatpad of each of five Nu/Nu mice. Similarly, 5×10^6 untreated TUC-3 cells were explanted into another five Nu/Nu mice. Daily observations, over a 120 day period, were made on both sets of mice to determine if tumor nodules appeared at the site of injection."}, "[6]": {"system": "ras-transformed pancreatic cancer (TUC-3) cells", "test": "Peptide incubation with TUC-3 cells (morphology, phenotypic reversion)", "format": "cell-based, rat"}, "Val 12-Ha-ras-p21": {"molecular_target": "T2, Val 12-Ha-ras-p21 (Homo sapiens, UniProt P01112, G12V)", "T2 construct": "host or cells: protein microinjected into Xenopus laevis oocytes", "test": "Co-immunoprecipitation of raf, MEK, JNK and MAPK with injected Val 12-Ha-ras-p21 in oocytes", "format": "cell-based, Xenopus laevis", "details": "peptide co-injected with Val 12-p21 into oocytes; anti-Ha-ras immunoprecipitate (FIG. 4A)", "experimental": "In these experiments, the Ha-ras form of Val 12-p21 was injected into oocytes (100 ug/ml, 50 nl per oocyte) either alone or together with inhibitory p21 peptide (residues 96-110 shown in this figure). […] The lysate was centrifuged for 15 min at 17000×g at 4° C., and the supernatant was either used directly. The lysates were then subjected to immunoprecipitation using an anti-Ha-ras antibody (CalBiochem). In this procedure, cell lysate was first pre-cleared by incubation with 50 ul of protein A beads for 1 hr at room temperature, followed by centrifugation. Anti-Ha-ras antibody was added to the lysate such that 0.1 ug antibody was added per 250 ug of pre-cleared lysate protein. A volume of 25 μl protein A agarose beads (Sigma) was then added to the incubation mixture, and the resulting mixture was incubated overnight at 4° C., after which the mixture was centrifuged, and the immunoprecipitate was washed three times with 0.5 ml of kinase buffer as described above. Immunoprecipitates were subjected to SDS-PAGE as described above in the preceding paragraph and blotted with anti-Ha-ras (1:2000 with 0.25% BSA), anti-raf (CalBiochem, San Diego, Calif.), diluted 1:2000 with 0.25% BSA, anti-JNK polyclonal antibody (1:2000), anti-MEK (CalBiochem) and anti-MAPK, diluted 1:2000 with 0.25% BSA. […]"}, "[7]": {"molecular_target": "Val 12-p21-JNK interaction (Homo sapiens, UniProt P01112, G12V)", "details": "cited from earlier work"}, "[8]": {"molecular_target": "T1, oncogenic ras-p21 (Val 12-p21)", "test": "Val 12-p21-induced oocyte maturation", "format": "cell-based, Xenopus laevis", "details": "peptide injected together with Val 12-p21"}},
  "note": "“Also recorded” adds a separate entry of the source. Like-named read-outs stand apart in the source and are kept apart here. Where a SMILES comes first, the peptide text is derived from it.",
  "data": [
    {"compound": "CO[C@@H]1[C@H](N(C)C(=O)c2ccccc2)C[C@H]2O[C@]1(C)n1c3ccccc3c3c4c(c5c6ccccc6n2c5c31)C(=O)NC4", "note": "[CGP 41 251]", "values": [
      {"measurement": "cytotoxicity to BMRPA1 cells", "setting": "BMRPA1 cells", "result": "cytotoxic to BMRPA1 cells"},
      {"measurement": "effect on TUC-3 cells", "setting": "TUC-3 cells [1]", "result": "induces both necrosis and phenotypic reversion of TUC-3 cells"},
      {"measurement": "growth of revertant TUC-3 cells in soft agar", "setting": "TUC-3 cells [1]", "result": "fail to grow in soft agar"},
      {"measurement": "insulin-activated wild-type ras-p21-induced oocyte maturation / signaling", "setting": "[2]", "result": "much less effect"},
      {"measurement": "oncogenic ras-p21-induced oocyte maturation / mitogenic signaling in oocytes", "setting": "[3]", "result": "blocks oncogenic ras-p21-induced oocyte maturation"}
    ]},
    {"compound": "CC[C@H](C)[C@H](NC(=O)[C@@H](NC(=O)[C@@H](NC(=O)[C@H](CCC(N)=O)NC(=O)[C@H](CCCCN)NC(=O)[C@H](CCCNC(=N)N)NC(=O)[C@H](Cc1ccc(O)cc1)NC(=O)[C@H](CO)NC(=O)[C@H](CC(=O)O)NC(=O)[C@H](CCC(=O)O)NC(=O)[C@@H](NC(=O)[C@@H](N)[C@@H](C)O)[C@@H](C)CC)C(C)C)C(C)C)C(=O)N[C@@H](CC(=O)O)C(=O)O", "note": "[PNC-7, TIEDSYRKQVVID] (H-TIEDSYRKQVVID-OH)", "values": [
      {"measurement": "cytotoxicity", "setting": "[4]", "result": "lack of cytotoxicity"},
      {"measurement": "effect on growth of BMRPA1 cells", "setting": "[4]", "result": "no apparent effects"}
    ]},
    {"compound": "CC[C@H](C)[C@H](NC(=O)[C@H](CCCNC(=N)N)NC(=O)[C@H](CCCCN)NC(=O)CNC(=O)[C@@H](NC(=O)[C@H](CO)NC(=O)[C@H](Cc1ccccc1)NC(=O)[C@@H]1CCCN1C(=O)[C@@H](N)CCSC)[C@@H](C)O)C(=O)N[C@@H](CCSC)C(=O)N[C@@H](CC(C)C)C(=O)NCC(=O)N[C@@H](CCC(=O)O)C(=O)N[C@@H](CCCCN)C(=O)N[C@@H](CCCCN)C(=O)N[C@@H](Cc1c[nH]c2ccccc12)C(=O)N[C@@H](CCCCN)C(=O)N[C@@H](CCSC)C(=O)N[C@@H](CCCNC(=N)N)C(=O)N[C@@H](CCCNC(=N)N)C(=O)N[C@@H](CC(N)=O)C(=O)N[C@@H](CCC(N)=O)C(=O)N[C@@H](Cc1ccccc1)C(=O)N[C@@H](Cc1c[nH]c2ccccc12)C(=O)N[C@H](C(=O)N[C@@H](CCCCN)C(=O)N[C@H](C(=O)N[C@@H](CCC(N)=O)C(=O)N[C@@H](CCCNC(=N)N)C(=O)NCC(=O)O)C(C)C)C(C)C", "note": "[X13-leader, reference compound]", "values": [
      {"measurement": "effect on morphology of BMRPA1 cells", "setting": "[4]", "result": "no effect"}
    ]},
    {"compound": "N[C@@H](Cc1ccc(O)cn1)C(=O)O", "note": "[azatyrosine, reference compound]", "values": [
      {"measurement": "oncogenic ras-p21-induced oocyte maturation / mitogenic signaling in oocytes", "setting": "[3]", "result": "selectively blocks oncogenic ras-p21-induced oocyte maturation"}
    ]},
    {"compound": "PNC-2-leader: ras-p21 residues 96-110 (SEQ ID NO:1) with penetratin leader KKWKMRRNQFWVKVQRG attached to its carboxyl terminal end (YREQIKRVKDSDVPKKWKMRRNQFWVKVQRG; amino acid residues 96-110 of oncogenic ras-p21 protein)", "values": [
      {"measurement": "tumor formation by morphologically revertant TUC-3 cells in nude mice", "setting": "TUC-3 cells [5]; cells treated two weeks with 100 ug/ml peptide, explanted subcutaneously", "result": "fail to form tumors up to two months after reversion"},
      {"measurement": "lowest concentration at which the morphological reversion of TUC-3 cells was achieved", "setting": "[6]", "result": 1, "unit": "ug/ml"},
      {"measurement": "phenotypic reversion of TUC-3 cells", "setting": "[6]; 1 ug/ml, after two weeks", "result": "complete phenotypic reversion"},
      {"measurement": "change in cell morphology of TUC-3 cells", "setting": "[6]; 100 μg/ml, 1 week (FIG. 2A)", "result": "the cells grow into contact-inhibited monolayers and show distinct cell boundaries"},
      {"measurement": "phenotypic reversion of TUC-3 cells", "setting": "[6]; after one day of treatment (FIG. 2B: 100 μg/ml)", "result": "foci of acinar cellular differentiation appear"}
    ]},
    {"compound": "PNC-7-leader: ras-p21 residues 35-47 (TIEDSYRKQVVID, SEQ ID NO:2) with penetratin leader KKWKMRRNQFWVKVQRG attached to its carboxyl terminal end (TIEDSYRKQVVIDKKWKMRRNQFWVKVQRG; peptide amino acid residues 35-47 of oncogenic ras-p21 protein)", "values": [
      {"measurement": "phenotypic reversion of TUC-3 cells", "setting": "[6]; 100 and 200 ug/ml (FIG. 2C: two weeks)", "result": "phenotypic reversion of the cells"},
      {"measurement": "concentration at which complete reversion of TUC-3 cells was achieved", "setting": "[6]; after two weeks of incubation", "result": "≥ 100", "unit": "µg/mL"}
    ]},
    {"compound": "YREQIKRVKDSDDVP (YREQIKRVKDSDVP; amino acid residues 96-110 of oncogenic ras-p21 protein) [PNC-2]", "values": [
      {"measurement": "insulin-activated wild-type ras-p21-induced oocyte maturation / signaling", "setting": "[2]", "result": "little effect; also recorded: do not block insulin-activated wild type ras-induced maturation"},
      {"measurement": "Tumor Nodule Size", "setting": "TUC-3 cells [5]; day 0", "result": 0.0, "unit": "mm"},
      {"measurement": "Tumor Nodule Size", "setting": "TUC-3 cells [5]; day 7", "result": 0.0, "unit": "mm"},
      {"measurement": "Tumor Nodule Size", "setting": "TUC-3 cells [5]; day 14", "result": 0.0, "unit": "mm"},
      {"measurement": "Tumor Nodule Size", "setting": "TUC-3 cells [5]; day 21", "result": 0.0, "unit": "mm"},
      {"measurement": "Tumor Nodule Size", "setting": "TUC-3 cells [5]; day 28", "result": 0.0, "unit": "mm"},
      {"measurement": "Tumor Nodule Size", "setting": "TUC-3 cells [5]; day 42", "result": 0.0, "unit": "mm"},
      {"measurement": "Tumor Nodule Size", "setting": "TUC-3 cells [5]; day 56", "result": 0.0, "unit": "mm"},
      {"measurement": "oncogenic ras-p21-induced oocyte maturation / mitogenic signaling in oocytes", "setting": "[3]", "result": "block mitogenic signaling by oncogenic ras-p21 in oocytes; also recorded: block oncogenic ras-induced oocyte maturation"},
      {"measurement": "co-precipitation of raf, MEK, JNK and MAPK with Val 12-ras-p21", "setting": "Val 12-Ha-ras-p21", "result": "none of these proteins precipitated with Val 12-ras-p21 although there is still some binding to raf"},
      {"measurement": "interferes with / blocks Val 12-p21-JNK interaction", "setting": "[7]", "result": "blocks oncogenic ras-p21-JNK interactions; also recorded: blocks the interaction of Val 12-p21 with JNK; also recorded: interferes with Val 12-p21-JNK interaction"},
      {"measurement": "phenotypic reversion of TUC-3 cells", "setting": "[6]", "result": 100, "unit": "%"},
      {"measurement": "cytotoxicity", "setting": "[4]", "result": "lack of cytotoxicity"},
      {"measurement": "effect on growth of BMRPA1 cells", "setting": "[4]", "result": "no apparent effects"},
      {"measurement": "Val 12-p21-induced oocyte maturation", "setting": "[8]", "result": "strongly inhibits maturation"}
    ]}
  ]
}
